Data reported in US8637312B2, “Mammalian culture media with polyamine and iron” (Cellca GmbH, priority 2008, dated 2014).

How the values were obtained:
rat hepatoma cells = conditions: 100 μM in culture medium; Itoh et al. 1994; cited from earlier work
CHO DG44 host cell line [1] = test: High cell density fed-batch culture of antibody producing CHO clone, cell growth; assay type: cell-based, Chinese hamster; conditions: for requirement for optimal cell growth: Example 6, FIG. 6, spermine with iron (III) citrate, iron (III) citrate supplemented at day 6 to 400 mg/l; for effect of spermine and iron together on cell growth: Example 1, FIG. 1, both at high concentration, feed media polyamine and iron free
Description: (§1) For all experiments a CHO DG44 host cell line (Urlaub and Chasin, Proc. Natl. Acad. Sci. USA, 1980, 77: 4216) was used. This host cell line was transfected with a vector carrying the gene of an IgG antibody. Transfectants were amplified using MTX in culture medium. An antibody producing clone was isolated and this clone was then used for all experiments.
(§2) Stock culture cells were kept in a shake flask or in a spinner flask. The stock culture was split into fresh culture medium every two or three days. That means, a small amount of cell culture was used as inoculum and transferred into a new flask and supplemented with fresh culture medium. Cells were cultured at 37° C. in CO2 atmosphere in an incubator. In this way cells were cultured in several passages. One passage is defined as a culture duration of 2-4 days. At different time points inoculum cells were taken from the stock culture and experiments were performed in various scales, for examples in 6-well plates, shake flasks, T-flasks, spinner flasks and bioreactors.
A basal medium as follows (in the following also termed proprietary culture medium) was used for cultivation of cells in all steps, e.g. in the stock culture, in the culture expansion step and in the production step. The basal medium contains all necessary substances for cell growth, cell viability and cellular productivity. The basal medium contains glucose at 1.0-6.0 g/l, NaCl 2.8-6.2 g/l, KCl 273-945 mg/l, CaCl2 48-290 mg/l, MgCl2 42-330 mg/l, NaH2PO4 56-1130 mg/l, Arginine 56-930 mg/l, Asparagine 44-900 mg/l, Aspartic acid 26-445 mg/l, Cysteine 35-270 mg/l, Glutamic acid 44-900 mg/, Glutamine 44-900 mg/l, Glycine 18-180 mg/l, Histidine 42-670 mg/l, Isoleucine 54-877 mg/l, Leucine 59-1250 mg/l, Lysine 73-1120 mg/l, Methionine 9-454 mg/l, Phenylalanine 35-677 mg/l, Proline 17-828 mg/l, Serine 26-1339 mg/l, Threonine 24-989 mg/l, Tryptophane 9-441 mg/l, Tyrosine 55-565 mg/l, Valine 52-787 mg/l, NaHCO3 2,4 g/l. The basal medium further comprises fatty acids and nucleotides. In all batch and fed-batch experiments the same proprietary culture medium and proprietary feed medium were used, unless otherwise stated. The feed medium used in fed-batch experiments (in the following also termed “proprietary feed medium”) has all necessary substances for cell growth, cell viability and cellular productivity, in particular salts, trace elements, carbohydrates, amino acids, fatty acids, pH regulator, nucleotides. Even though here a rich feed medium is used containing above mentioned substances, feed media must not comprise all of these components. Feed media consisting of one or more of above mentioned substances are suitable also. Both basal medium and feed medium are serum free, protein free, peptone free and peptide free. However, supplementation of media with one or more of above mentioned additives is possible. Thus, both media are chemically defined, consisting of only single, fully defined chemicals.
Experiments were performed either in batch or in fed-batch modus. If an experiment was designed for fed-batch modus, it was started by inoculating the flask with stock culture cells in the production medium (culture medium). Culture flasks were inoculated with an inoculation cell density of 2 to 4×10^5 viable cells per millilitre. Cells were cultured for 1 to 4 days. The culture was supplemented thereafter with a feed medium for first time. Feeding was done batch wise every 1 to 3 days. Feeding the culture with feed medium was performed batch wise (bolus addition). Feeding of culture can also be done continuously, especially in bioreactors. In fed-batch experiments two different feed media were used. However, it is possible to use one or more than two different feed media. The culture was incubated as long as the cell viability was greater than 50%. Thus, culture duration was approximately 10 to 18 days. Every day samples were taken from cultures and analytical processes were done, such as cell count and metabolite measurements. […]

[2] = oligopeptide-free medium; WO 2007/077217; cited from earlier work
CHO DG44 host cell line [3] = test: Batch culture of antibody producing CHO clone, cell growth; assay type: cell-based, Chinese hamster; conditions: for effect of spermine and iron together on cell concentration: Example 5, FIG. 5, spermine with iron (III) nitrate nonahydrate, both at high concentration
Description: as §1, §2
A basal medium as follows (in the following also termed proprietary culture medium) was used for cultivation of cells in all steps, e.g. in the stock culture, in the culture expansion step and in the production step. The basal medium contains all necessary substances for cell growth, cell viability and cellular productivity. The basal medium contains glucose at 1.0-6.0 g/l, NaCl 2.8-6.2 g/l, KCl 273-945 mg/l, CaCl2 48-290 mg/l, MgCl2 42-330 mg/l, NaH2PO4 56-1130 mg/l, Arginine 56-930 mg/l, Asparagine 44-900 mg/l, Aspartic acid 26-445 mg/l, Cysteine 35-270 mg/l, Glutamic acid 44-900 mg/, Glutamine 44-900 mg/l, Glycine 18-180 mg/l, Histidine 42-670 mg/l, Isoleucine 54-877 mg/l, Leucine 59-1250 mg/l, Lysine 73-1120 mg/l, Methionine 9-454 mg/l, Phenylalanine 35-677 mg/l, Proline 17-828 mg/l, Serine 26-1339 mg/l, Threonine 24-989 mg/l, Tryptophane 9-441 mg/l, Tyrosine 55-565 mg/l, Valine 52-787 mg/l, NaHCO3 2,4 g/l. The basal medium further comprises fatty acids and nucleotides. In all batch and fed-batch experiments the same proprietary culture medium and proprietary feed medium were used, unless otherwise stated. The feed medium used in fed-batch experiments (in the following also termed “proprietary feed medium”) has all necessary substances for cell growth, cell viability and cellular productivity, in particular salts, trace elements, carbohydrates, amino acids, fatty acids, pH regulator, nucleotides. Even though here a rich feed medium is used containing above mentioned substances, feed media must not comprise all of these components. Feed media consisting of one or more of above mentioned substances are suitable also. Both basal medium and feed medium are serum free, protein free, peptone free and peptide free. […]

[4] = system: BHK (baby hamster kidney) cells; conditions: adherent growing BHK cells, serum containing medium; Brunton et al. 1991; cited from earlier work
[5] = system: CHO (Chinese hamster ovary) cells; conditions: 10 μM ferric iron plus spermine 0 to 100 μM, serum containing medium; Gaboriau et al. 2004; cited from earlier work
[6] = Example 8, FIG. 8, in the presence of spermine

[Fe+3] [ferric (Fe^3+) iron]
mitochondrial DNA damage (rat hepatoma cells): damaged

O=C([O-])CC(O)(CC(=O)[O-])C(=O)[O-].[Fe+3] [iron (III) citrate]
requirement for optimal cell growth (CHO DG44 host cell line [1]): required

NCCCCN [putrescine]
efficiency among amines in promoting cell specific productivity [2]: most efficient amine

NCCCNCCCCNCCCN [spermine]
effect of spermine and iron together on cell growth (CHO DG44 host cell line [1]): synergistic effect | cell growth with increasing spermine concentration (CHO DG44 host cell line [1]; Example 3, FIG. 3, 100 mg/l iron (III) pyrophosphate hydrate in medium, 800 mg/l in feed): grow better | requirement for optimal cell growth (CHO DG44 host cell line [1]): required | effect of spermine on cell growth (CHO DG44 host cell line [1]; Example 7, FIG. 7, iron (III) citrate as iron source, feed 3200 mg/l iron (III) citrate): positive effect | effect of spermine on cell growth (CHO DG44 host cell line [1]; Example 8, FIG. 8, iron (III) phosphate as iron source, feed 800 mg/l iron (III) phosphate): positive effect | effect of spermine and iron together on cell concentration (CHO DG44 host cell line [3]): synergistic effects | toxicity to cells [4]: toxic | number of viable cells [5]: decreases the number of viable cells in a dose-dependent manner | cellular productivity on increasing concentration above 2 mg/l [2]: does not significantly increase

O=P([O-])([O-])[O-].[Fe+3] [iron (III) phosphate]
effect of high iron concentration on cell growth (CHO DG44 host cell line [1]; [6]): promotes cell growth | toxicity of high iron concentration to the cells (CHO DG44 host cell line [1]; [6]): not toxic

iron dextran
effect of high iron concentration on cell growth (CHO DG44 host cell line [1]; Example 9, FIG. 9, 40 mg/l spermine, iron dextran fed at day 6 to 250 mg/l): promotes cell growth

O.O.O.O.O.O.O.O.O.O=[N+]([O-])[O-].O=[N+]([O-])[O-].O=[N+]([O-])[O-].[Fe+3] [iron (III) nitrate nonahydrate]
effect of spermine and iron together on cell concentration (CHO DG44 host cell line [3]): synergistic effects

[Fe+2] [ferrous (Fe^2+)]
mitochondrial DNA damage (rat hepatoma cells): damaged

iron
need of iron for cell growth (CHO DG44 host cell line [1]; Example 1, FIG. 1): essential | effect of spermine and iron together on cell growth (CHO DG44 host cell line [1]): synergistic effect

NCCCCNCCCN [spermidine]
cell concentration reached (CHO DG44 host cell line [3]; Example 2, FIG. 2, 100 mg/l iron (III) pyrophosphate hydrate, with versus without spermidine): higher concentration | toxicity of spermidine (CHO DG44 host cell line [3]; Example 2, FIG. 2, tested high concentrations, 100 mg/l iron (III) pyrophosphate hydrate): not visible
